Data taken from ChEMBL document CHEMBL1128881, “The in vitro effects of three lysosomotropic detergents against three human tumor cell lines” (Bioorg Med Chem Lett, 1995).

Assays:
[1] = Dissociation constant was measured in water; assay type: physicochemical
[2] = Tested for inhibition of DNA synthesis at a dose range of 1.9-2.4 ug/ml after 30 min; range of 8-10 uM; assay type: functional

| Compound | pKa ([1]; water, read-out: pKa) | pKa ([1]; buffer) | further results |
| --- | --- | --- | --- |
| CCCCCCCCCCCCNC(=O)[C@@H](N)CO | 7.5 | – | – |
| CCCCCCCCCCCCNC(=O)[C@@H](N)COC | – | – | pKa [1]: 5.9; IC50 [2]: 10 µM |
| CCCCCCCCCCCCn1ccnc1 [listing 1 of 2 here] | – | 7.5 | – |
| CCCCCCCCCCCCn1ccnc1 [listing 2 of 2 here] | 6.3 | – | – |
| CCCCCCCCCCCCNC(=O)[C@@H](N)CO.Cl | – | 5.8 | – |
| Cn1ccnc1 [1-METHYLIMIDAZOLE] | 7 | – | – |
